Laboratory results as given in ChEMBL document CHEMBL1201862, “PubChem BioAssay data set” (2004).
Activity calls are given as the source filed them. Cut-off read from the data, not from the text of the source, for most assays here: actives have a measured EC50 and inactives only a lower limit.

Experiments:
[1] = target: FAD-linked sulfhydryl oxidase ALR (Homo sapiens, UniProt P55789); assay: inhibitors of human ALR sulfhydryl oxidase, dose response, biochemical, H2O2 detection, luminescence, cherry-pick (AID 493248)
FAD-linked sulfhydryl oxidase ALR, sequence (P55789 whole entry): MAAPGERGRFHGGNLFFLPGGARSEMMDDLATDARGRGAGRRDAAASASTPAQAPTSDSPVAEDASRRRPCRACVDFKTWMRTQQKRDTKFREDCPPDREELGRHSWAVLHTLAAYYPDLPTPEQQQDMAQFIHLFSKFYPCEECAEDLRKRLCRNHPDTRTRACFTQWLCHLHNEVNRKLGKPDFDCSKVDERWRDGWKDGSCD

cells [2] = assay type: functional
[3] = inhibitors of intracellular T. cruzi replication, confirmation, NIH3T3 host cells, beta-gal luminescence (AID 2044); assay type: functional, cell-based;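 note: intracellular parasites grown in NIH/3T3 mouse fibroblasts as host cells; luminescent beta-galactosidase reporter signal from transgenic T. cruzi replicating inside host cells; inhibitors lower the luminescence signal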
[4] = cytotoxicity toward NIH3T3 fibroblasts, dose response, counter-screen, cell-based, ATP luminescence, mouse fibroblasts (AID 2010); assay type: functional;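 note: cells exposed to compound for about 90 hours before reading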
[5] = HEp-2 cell cytotoxicity, dose response, cytotoxicity control for RSV inhibitor project, HTS (AID 2410); assay type: functional; details: human respiratory syncytial virus
[6] = target: T1, Heat shock factor protein 1 (Mus musculus, UniProt P38532); assay: HSF1 potentiators in luciferase reporter cells, confirmation, cell-based, NIH3T3, luminescence, dose retest (AID 435004); assay type: functional;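 note: stress induced by proteasome inhibitor MG132 added 30 min after compound; luciferase reporter driven by HSF1 response element in NIH3T3 cells; actives raise luminescence as potentiators of the MG132 stress response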
T1 sequence (P38532 whole entry): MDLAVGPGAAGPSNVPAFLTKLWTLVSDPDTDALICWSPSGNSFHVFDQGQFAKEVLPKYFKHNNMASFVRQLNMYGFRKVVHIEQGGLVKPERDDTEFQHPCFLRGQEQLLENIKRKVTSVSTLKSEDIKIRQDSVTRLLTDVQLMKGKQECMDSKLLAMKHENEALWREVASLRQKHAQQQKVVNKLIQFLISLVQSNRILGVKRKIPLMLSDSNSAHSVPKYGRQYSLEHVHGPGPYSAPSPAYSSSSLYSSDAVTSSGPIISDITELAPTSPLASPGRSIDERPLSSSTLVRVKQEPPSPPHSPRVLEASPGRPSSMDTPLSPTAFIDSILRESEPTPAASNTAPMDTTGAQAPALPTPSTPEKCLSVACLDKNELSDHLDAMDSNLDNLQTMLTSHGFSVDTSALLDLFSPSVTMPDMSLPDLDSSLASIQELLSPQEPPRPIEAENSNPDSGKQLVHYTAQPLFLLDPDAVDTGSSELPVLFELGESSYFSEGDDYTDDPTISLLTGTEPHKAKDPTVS

BJ [7] = assay: cytotoxicity toward BJ-TERT fibroblasts, dose response, cell-based, RAS-independent, luminescence (AID 1933); assay type: functional; details: Homo sapiens
BJ [8] = assay: cells; assay type: functional, cell-based; details: Homo sapiens
BJ [9] = assay: cytotoxicity toward BJ-TERT-LT-ST fibroblasts, dose response, cell-based, RAS-independent, luminescence (AID 1935); assay type: functional; details: Homo sapiens;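 note: BJ fibroblasts immortalized with TERT plus LT and ST oncogenes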
[10] = cytotoxicity toward DRD oncogenic fibroblasts, dose response, cell-based, non-viral oncogenic, luminescence (AID 1934); assay type: functional; details: Homo sapiens
[11] = target: Luciferin 4-monooxygenase (Photinus pyralis, UniProt P08659); assay: firefly luciferase enzyme inhibitors, dose response, biochemical, luminescence (AID 1891)
Luciferin 4-monooxygenase, sequence (P08659 whole entry): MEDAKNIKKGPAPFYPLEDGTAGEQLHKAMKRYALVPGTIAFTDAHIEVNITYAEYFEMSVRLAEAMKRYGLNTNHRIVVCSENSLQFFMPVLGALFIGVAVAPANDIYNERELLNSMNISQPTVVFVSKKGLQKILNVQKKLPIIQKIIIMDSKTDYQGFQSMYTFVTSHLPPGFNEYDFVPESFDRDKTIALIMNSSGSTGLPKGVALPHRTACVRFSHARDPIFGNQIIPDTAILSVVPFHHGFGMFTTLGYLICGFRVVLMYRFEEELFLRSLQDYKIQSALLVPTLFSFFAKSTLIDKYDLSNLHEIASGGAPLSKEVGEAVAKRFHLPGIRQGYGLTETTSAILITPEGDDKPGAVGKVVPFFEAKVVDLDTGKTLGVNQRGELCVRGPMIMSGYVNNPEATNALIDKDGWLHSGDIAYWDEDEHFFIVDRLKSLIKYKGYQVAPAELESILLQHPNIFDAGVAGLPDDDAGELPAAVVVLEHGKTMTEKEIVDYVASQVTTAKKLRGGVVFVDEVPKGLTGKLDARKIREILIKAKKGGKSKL

[12] = Luminescence Cell-Based Dose Confirmation HTS to Identify Inhibitors of Platelet Dense Granule Release. [Related pubchem assays: 1663 (Primary HTS), 1678 (Summary of Project)]; assay type: functional
cells [13] = assay type: functional, cell-based
cells [14] = assay type: functional, cell-based; remark: listed apart in the source
Cytochrome P450 2C9 = Cytochrome P450 2C9 (Homo sapiens, UniProt P11712)
Cytochrome P450 2C9, sequence (P11712 whole entry): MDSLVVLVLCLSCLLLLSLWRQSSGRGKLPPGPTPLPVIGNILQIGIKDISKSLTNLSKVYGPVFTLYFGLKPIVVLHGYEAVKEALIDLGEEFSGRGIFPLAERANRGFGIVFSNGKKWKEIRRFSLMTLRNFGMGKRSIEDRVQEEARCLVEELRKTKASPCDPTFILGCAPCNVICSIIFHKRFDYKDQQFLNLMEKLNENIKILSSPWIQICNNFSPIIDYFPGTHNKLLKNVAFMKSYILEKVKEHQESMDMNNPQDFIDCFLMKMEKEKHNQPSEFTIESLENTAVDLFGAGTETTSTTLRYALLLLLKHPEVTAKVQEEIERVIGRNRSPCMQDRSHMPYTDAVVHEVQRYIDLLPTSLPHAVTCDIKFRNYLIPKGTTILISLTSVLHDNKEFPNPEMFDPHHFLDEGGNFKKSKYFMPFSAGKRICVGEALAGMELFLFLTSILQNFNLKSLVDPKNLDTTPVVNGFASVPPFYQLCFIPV

[15] = target: T1, Heat shock factor protein 1; assay: inhibition of MG132-induced HSE-luciferase signal, confirmation, cell-based, NIH3T3, luminescence, dose retest (AID 2382); assay type: functional;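 note: NIH3T3 fibroblasts with HSF1-driven luciferase reporter stressed by proteasome inhibitor MG132; luminescence from HSF1-driven luciferase expression after 8 hours of MG132 stress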
[16] = inhibitors of firefly luciferase expression or activity, dose response, H4 neuroglioma cells, luminescence (AID 1990); assay type: functional, cell-based
[17] = Luminescence Cell-Based Dose Response HTS to Identify Inhibitors of 5'UTR Stem-Loop Driven Prion Protein mRNA Translation in H4 Neuroglioblastoma Cells. [Related pubchem assays: 1827 (Project Summary), 1813 (Primary HTS)]; assay type: functional
[18] = inhibitors of SNCA 5'UTR-driven reporter translation, confirmation, H4 neuroglioma cells, luminescence (AID 1988); assay type: functional, cell-based
INS1 = assay: beta cell apoptosis inhibitors, cytokine rescue, dose response, luminescence, retest (AID 449756); assay type: functional, cell-based; details: Rattus norvegicus;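 note: cell death triggered by IL-1 beta plus TNF-alpha plus IFN-gamma mixture; protective hits raise ATP signal compared with cytokine alone wells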
[19] = ZM109 Env clade C HIV-1 fusion inhibitors, dose response, HeLa effector, CEM target cells, luciferase, cherry-pick (AID 652058); assay type: functional, cell-based
[20] = inhibitors of clade B AD8 Env fusion, dose response, cell-based, cherry-pick (AID 652062); assay type: functional;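 note: luciferase signal from cell-cell fusion driven by HIV-1 clade B AD8 Env; potency is for inhibitors of fusion seen as a drop in luminescence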
Paired box protein Pax-8 = Paired box protein Pax-8 (Homo sapiens, UniProt Q06710); assay: inhibitors of PAX8-driven TPO luciferase reporter, dose response, RMG-I cells, cherry-pick (AID 687027); assay type: functional, cell-based;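 note: luciferase reporter driven by Pax8 target thyroperoxidase promoter measured by SteadyGlo luminescence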
Paired box protein Pax-8, sequence (Q06710 whole entry, the tested form may be a part): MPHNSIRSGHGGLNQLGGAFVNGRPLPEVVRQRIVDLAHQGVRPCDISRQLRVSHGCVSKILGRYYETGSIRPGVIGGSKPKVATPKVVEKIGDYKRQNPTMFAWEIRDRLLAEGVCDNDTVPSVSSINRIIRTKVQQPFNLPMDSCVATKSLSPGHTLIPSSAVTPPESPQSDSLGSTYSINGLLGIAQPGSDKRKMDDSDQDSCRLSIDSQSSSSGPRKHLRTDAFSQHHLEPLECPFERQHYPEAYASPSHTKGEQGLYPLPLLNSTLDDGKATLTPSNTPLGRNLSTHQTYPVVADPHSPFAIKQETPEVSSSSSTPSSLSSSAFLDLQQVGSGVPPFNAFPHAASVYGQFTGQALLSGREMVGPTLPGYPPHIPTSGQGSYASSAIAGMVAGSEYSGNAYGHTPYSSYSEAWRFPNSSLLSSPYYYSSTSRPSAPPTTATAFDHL

[21] = inhibitors of HIV Env-driven cell fusion, dose response, cherry-pick (AID 652057); assay type: functional, cell-based
Cytochrome P450 1A2 = target: T2, Cytochrome P450 1A2 (Homo sapiens, UniProt P05177);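 note: PubChem cytochrome P450 panel assay, CYP1A2 panel member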
T2 sequence (P05177 whole entry): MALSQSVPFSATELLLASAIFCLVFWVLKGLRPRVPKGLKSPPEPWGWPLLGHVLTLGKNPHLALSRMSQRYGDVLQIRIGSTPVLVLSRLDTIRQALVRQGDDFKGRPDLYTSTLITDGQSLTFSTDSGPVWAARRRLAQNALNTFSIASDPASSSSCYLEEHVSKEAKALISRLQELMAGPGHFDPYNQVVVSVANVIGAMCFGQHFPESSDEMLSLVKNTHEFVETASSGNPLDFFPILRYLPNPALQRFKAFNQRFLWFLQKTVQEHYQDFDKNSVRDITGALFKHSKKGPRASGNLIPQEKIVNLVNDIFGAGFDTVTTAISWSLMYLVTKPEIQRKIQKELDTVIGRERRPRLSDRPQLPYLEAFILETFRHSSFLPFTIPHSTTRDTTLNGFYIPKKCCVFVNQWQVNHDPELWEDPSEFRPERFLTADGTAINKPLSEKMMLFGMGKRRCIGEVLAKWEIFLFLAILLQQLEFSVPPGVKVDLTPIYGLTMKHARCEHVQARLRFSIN

## C[C@H](N)CN1CCc2ccc(Br)cc21
[1]
  AC50: 0.84 µM (active)

## Cc1ccc(OCC(=O)OCc2c(C)noc2C)cc1C
Cells [2]
  IC50: 22.7 µM (active)

## CC(C)(C)NCC1(CO)SC(N)=NC1=O (centres undefined)
[3]
  EC50: 3.82 µM (active)
[4]
  EC50: > 30 µM (not active)
Cells [2]
  IC50: 16.4 µM (active)

## Cc1ccc(C(=O)Nc2nc(C(C)(C)C)cs2)s1
[5]
  CC50: 3.25 µM (active)

## CCCN(CCC)C(S)=NC1CC2C=CC1C2 (centres undefined)
[6]
  EC50: > 260 µM (inactive)

## O=C(Oc1ccccc1Cl)c1ccc2c(=O)n3c(nc2c1)CCC3
Cells [2]
  IC50: 5.48 µM (active)

## O=C(CSc1nnc(-c2c[nH]c3ccccc23)n1-c1ccc(F)cc1)NCc1ccco1
[6]
  EC50: 40.4 µM (active)

## COc1ccc(NC(=O)C(=O)NCCC2CCCCN2S(=O)(=O)c2ccccc2)cc1 (centres undefined)
BJ [7]
  EC50: 22.8 µM (active)
BJ [8]
  EC50: 19.8 µM (active)
BJ [9]
  EC50: 23.4 µM (active)
[10]
  EC50: 13.5 µM (inconclusive)

## Nc1cccc(C(=O)Nc2ccc3[nH]c(-c4cccnc4)nc3c2)c1
[1]
  AC50: 1.07 µM (active)

## Cc1nnc(N2CCC(C(=O)N3CCCCCC3)CC2)c2nn(-c3ccc(Cl)cc3)c(C)c12
[5]
  CC50: 21.9 µM (active)

## CC(=O)N1c2ccc(S(=O)(=O)N3CCCCC3)cc2CC1C(=O)Nc1ccccc1C(F)(F)F (centres undefined)
[11]
  EC50: > 112 µM (not active)
[12]
  EC50: > 112 µM (not active)

## CCOC(=O)CC(=O)CSCC(=O)Nc1ccc(C)cc1
[6]
  EC50: > 260 µM (inactive)

## COc1ccccc1N(CC(=O)NC1CCCCC1)S(C)(=O)=O
Cells [13]
  EC50: > 350 µM (not active)
Cells [14]
  EC50: > 350 µM (not active)

## Cc1ccccc1CSc1nsc(N)n1
[6]
  EC50: > 260 µM (inactive)
Cytochrome P450 2C9
  AC50: 2 µM (inconclusive)

## Cc1sc2ncnc(SCC(=O)N3CCCC3)c2c1C
[11]
  EC50: > 112 µM (not active)
[12]
  EC50: > 112 µM (not active)

## O=C1C(=O)c2ccccc2C(O)=C1c1cccc([N+](=O)[O-])c1
[5]
  CC50: 14.2 µM (active)
Cells [13]
  EC50: > 350 µM (not active)
Cells [14]
  EC50: 56.5 µM (active)

## CCOC(=O)c1cc2nc(-c3ccco3)cc(C(F)(F)F)n2n1
[15]
  EC50: > 195 µM (not active)
[11]
  EC50: > 112 µM (not active)
[12]
  EC50: > 112 µM (not active)

## CCN(CC)c1ccc(CNCCc2ccccc2F)cc1
[1]
  AC50: 1.36 µM (active)

## O=C(CN1CCN(S(=O)(=O)c2ccc3ccccc3c2)CC1)N1CCc2ccccc2C1
[5]
  CC50: 25.3 µM (active)
[16]
  EC50: 14.4 µM (active)
[17]
  EC50: 23 µM (active)
[18]
  EC50: > 120 µM (not active)

## COc1cccc(-c2cn3nc(C)c(C)nc3n2)c1
[11]
  EC50: 19.7 µM (active)
[12]
  EC50: 6.72 µM (active)

## CCOC(=O)c1c(C)oc2ccc(NS(=O)(=O)c3ccc4c5c(cccc35)C(=O)N4)cc12
[5]
  CC50: 7.08 µM (active)

## O=C(Nc1cccc(Cl)c1)Nc1ccccc1C(=O)O
[11]
  EC50: 0.654 µM (active)
[12]
  EC50: 11.4 µM (active)

## O=C(CSC1CS(=O)(=O)c2cc([N+](=O)[O-])ccc21)NNC(=O)c1ccc(Cl)cc1 (centres undefined)
[6]
  EC50: > 260 µM (inactive)

## CCOC(=O)COc1c(-c2ccc(OC)cc2)oc2ccccc2c1=O
Cells [2]
  IC50: 5.55 µM (active)

## O=C(O)c1ccccc1OC(C(=O)Nc1cc(Cl)cc(Cl)c1)c1ccccc1 (centres undefined)
[6]
  EC50: > 260 µM (inactive)

## CCOC(=O)c1c(S(=O)(=O)NCc2ccc(C)o2)c(C)n(C)c1C
Cells [13]
  EC50: > 350 µM (not active)
Cells [14]
  EC50: > 350 µM (not active)

## CCCn1cnc2cc(NCc3ccccc3O)ccc21
[1]
  AC50: 3.92 µM (active)

## CCc1ccc(-n2c(S)nnc2Cc2ccccc2)cc1
[11]
  EC50: > 112 µM (not active)
[12]
  EC50: > 112 µM (not active)

## Cc1cccc2nc(CSc3nc4nncc-4c(O)n3-c3cccc(Cl)c3)cc(=O)n12
INS1
  AC50: 8.23 µM (active)

## CN(CC(=O)Nc1ccccc1Cl)CC(=O)Nc1c(F)cccc1F
[6]
  EC50: > 260 µM (inactive)

## O=C(NCC1COc2ccccc2O1)c1cccc(S(=O)(=O)NCc2ccccc2)c1 (centres undefined)
INS1
  AC50: 8.07 µM (active)

## CCn1c(-c2cc(Br)ccc2O)n[nH]c1=S
[1]
  AC50: 4.27 µM (active)

## NC(=O)c1cc2cc(Br)ccc2o/c1=N\Cc1ccccc1
[6]
  EC50: > 260 µM (inactive)

## C[C@H](CO)N1C[C@H](C)[C@@H](CN(C)C(=O)NC2CCCCC2)Oc2c(cccc2N(C)C)C1=O
[19]
  AC50: 36.3 µM (active)
[20]
  AC50: 0.558 µM (active)

## COc1ccc(S(=O)(=O)Nc2ccc3c(c2)C(=O)N([C@H](C)CO)C[C@H](C)[C@@H](CN(C)Cc2ccc(C(F)(F)F)cc2)OCCCC[C@H](C)O3)cc1
Paired box protein Pax-8
  AC50: 18.9 µM (active)

## CN1C(=O)c2cc(NC(=O)c3cscn3)ccc2OC[C@@H]2O[C@H](CC(=O)NCc3ccc(Cl)c(Cl)c3)CC[C@H]21
[21]
  AC50: 21 µM (active)
[19]
  AC50: 6.62 µM (active)
[20]
  AC50: 40.6 µM (active)

## C[C@H]1CN([C@@H](C)CO)C(=O)Cc2cc(NC(=O)Nc3cccc4ccccc34)ccc2O[C@H]1CN(C)S(=O)(=O)c1ccc(F)cc1
[21]
  AC50: 3.46 µM (active)
[19]
  AC50: 7.77 µM (active)
[20]
  AC50: 6.07 µM (active)

## CC/C(C)=N/Nc1nc(-c2cc3cccc(OC)c3oc2=O)cs1
[1]
  AC50: 0.091 µM (active)

## CN(C)c1ccc(/C=N/Nc2nncc3ccccc23)cc1
[11]
  EC50: 1.11 µM (active)
[12]
  EC50: 2.37 µM (active)

## CCO/C(O)=C1\C(C)=Nc2ncnn2C1c1ccc2c(c1)OCO2 (centres undefined)
[6]
  EC50: > 260 µM (inactive)

## CNc1c2c(nn1C)CCCC2 [TETRYDAMINE]
Cells [13]
  EC50: > 350 µM (not active)
Cells [14]
  EC50: > 350 µM (not active)
Cytochrome P450 1A2
  AC50: 39.8 µM (inconclusive)
